Assay results as given in PubChem BioAssay (NCI).
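Results reflect a 48-hour exposure of cells in 96-well plates to compound at five concentrations. Definition used: TGI = concentration required for complete inhibition of growth.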

Key:
Assay in all cases: NCI anticancer screen, dose series, 48 h
786-0 renal = system: 786-0 renal
A549 NSCLC = system: A549 NSCLC
ACHN renal = system: ACHN renal
BT-549 breast = system: BT-549 breast
CAKI-1 renal = system: CAKI-1 renal
CCRF-CEM leukemia = system: CCRF-CEM leukemia
COLO 205 colon = system: COLO 205 colon
DU-145 prostate = system: DU-145 prostate
EKVX NSCLC = system: EKVX NSCLC
HCC-2998 colon = system: HCC-2998 colon
HCT-116 colon = system: HCT-116 colon
HCT-15 colon = system: HCT-15 colon
HOP-62 NSCLC = system: HOP-62 NSCLC
HS 578T breast = system: HS 578T breast
HT29 colon = system: HT29 colon
IGROV1 ovarian = system: IGROV1 ovarian
K-562 leukemia = system: K-562 leukemia
KM12 colon = system: KM12 colon
LOX IMVI melanoma = system: LOX IMVI melanoma
M14 melanoma = system: M14 melanoma
MALME-3M melanoma = system: MALME-3M melanoma
MCF7 breast = system: MCF7 breast
MDA-MB-231 breast = system: MDA-MB-231 breast
MDA-MB-435 = system: MDA-MB-435
MOLT-4 leukemia = system: MOLT-4 leukemia
NCI-H226 lung = system: NCI-H226 lung
NCI-H23 lung = system: NCI-H23 lung
NCI-H460 lung = system: NCI-H460 lung
NCI-H522 lung = system: NCI-H522 lung
NCI/ADR-RES ovarian = system: NCI/ADR-RES ovarian
OVCAR-3 ovarian = system: OVCAR-3 ovarian
OVCAR-4 ovarian = system: OVCAR-4 ovarian
OVCAR-5 ovarian = system: OVCAR-5 ovarian
OVCAR-8 ovarian = system: OVCAR-8 ovarian
PC-3 prostate = system: PC-3 prostate
RPMI-8226 leukemia = system: RPMI-8226 leukemia
RXF 393 renal = system: RXF 393 renal
SF-268 CNS = system: SF-268 CNS
SF-295 CNS = system: SF-295 CNS
SF-539 CNS = system: SF-539 CNS
SK-MEL-2 melanoma = system: SK-MEL-2 melanoma
SK-MEL-28 melanoma = system: SK-MEL-28 melanoma
SK-MEL-5 melanoma = system: SK-MEL-5 melanoma
SK-OV-3 ovarian = system: SK-OV-3 ovarian
SN12C renal = system: SN12C renal
SNB-19 CNS = system: SNB-19 CNS
SNB-75 CNS = system: SNB-75 CNS
SR leukemia = system: SR leukemia
SW-620 colon = system: SW-620 colon
T-47D breast = system: T-47D breast
TK-10 renal = system: TK-10 renal
U251 CNS = system: U251 CNS
UACC-257 melanoma = system: UACC-257 melanoma
UACC-62 melanoma = system: UACC-62 melanoma
UO-31 renal = system: UO-31 renal

Measured: TGI

COc1ccc(S(=O)Cc2cc(OC)c(OC)c(OC)c2)cc1 (stereo not given)
35.7 µM: MDA-MB-435
> 100 µM: all other assays above
